Assay results from paper PMC12048343, “Discovery of a small molecule secreted clusterin enhancer that improves memory in Alzheimer’s disease mice” (npj Drug Discovery, 2025).
Values after ≈ are worked out from the molar mass of the structure shown. “Also recorded” adds a separate entry of the source. Where two headings read alike, the source gives them in different places.

Assays:
[1] = system: sCLU secreted from human U-87 MG glioblastoma cells; assay: Human sCLU AlphaLISA on supernatant of U-87 MG cells (HTS, re-test, dose response); type: cell-based; conditions: for sCLU levels relative to DMSO control: 5 µM
Description: Cell culture supernatant (2 μL) was added to a 384-well proxy plate preloaded with AlphaLISA HiBlock buffer (2 µL, 1X, CAT#AL004C, Perkin Elmer). Then an anti-sCLU antibody mixture (2 µL, mAb J84, biotinylated (10 nM, Cat# 3717-6-1000, Mabtech) and mAb CLU aa 22-227 (Cat#AF7084, R&D Systems), Acceptor bead conjugated (50 µg/mL, Cat#6772001, Perkin Elmer)) was added and incubated at room temperature for 1 hour. AlphaScreen Streptavidin Donor beads (2 µL, Cat#6760002S, Perkin Elmer) were added, incubated for an additional 30 min in the dark, and the plate was read in an Envision plate reader.
Human glioblastoma U-87 MG cells were proliferated in EMEM with 10% FBS and 1% P/S (complete medium) in 10 cm dishes until approximately 90% confluent. Following trypsinization, a suspension of 2 × 10^5 cells/mL (25 µL) were added to 384-well plates containing complete medium (25 µL) and library compounds from 9 plates (5 µM). After incubation for 30 h at 37 °C and 5% CO2, 2 μL of cell culture supernatant were analyzed via human sCLU AlphaLISA as described above. Cell culture medium and cells were added to the 384-well plates using the MultiDrop. The BioMek FX was used to pin the drugs and transfer the cell culture supernatant. The MANTIS liquid handler was used to added human sCLU AlphaLISA reagents.
Human glioblastoma U-87 MG cells were proliferated in EMEM with 10% FBS and 1% P/S (complete medium) in 10 cm dishes until approximately 90% confluent. […] After incubation for 30 hours at 37 °C and 5% CO2, 2 μL of cell culture supernatant were analyzed via human sCLU AlphaLISA as described above.

[2] = system: nCLU levels in U-87 MG cells; assay: nCLU levels in U-87 MG cells; type: cell-based, human; conditions: 5 µM
[3] = Blood-Brain Barrier (BBB) permeability assay (IAM column, Pm); type: in vitro ADME; conditions: pH 7.4; Pm > 1.0 = CNS+
Description: A liquid chromatography-ultraviolet/visible spectroscopy (LC-UV/Vis) assay was performed on a 1290 Infinity HPLC system (Agilent Technologies) with an HPLC column containing immobilized phosphatidylcholine (IAM.PC.DD, Regis Technologies, Cat#774011, 5 µm 300 Å 100 ×4.6 mm). The HPLC method was a mixture of 6.7 mM phosphate buffer saline (pH 7.4; solvent A) and acetonitrile (solvent B), and a gradient was used for the elution of the compounds (min/%B: 0/20, 20/60, 21/20, 30/20). The retention time of the compound (tr) and void volume time of the column (t0) were recorded. Blood-brain barrier (BBB) permeability (Pm) was calculated using the following equations as described by Yoon et al. (10.1177/1087057105281656):
KIAM = (tr − t0) / t0; Pm = (KIAM / MW^4) x 10^10
Compounds with a Pm > 1.0 were determined to be BBB permeable (CNS + ) at pH 7.

[4] = molecular target: BRD2 (Homo sapiens, UniProt P25440); assay: BRD2 inhibition assay; type: biochemical
[5] = Liver microsome stability assay; type: in vitro ADME; conditions: pH 7.4; human liver microsomes 0.5 mg/mL, NADPH, 37 °C, up to 120 min; read-out: Microsomal Stability t1/2
Description: An aliquot (1 µL) of test compound (1 mM, 100% DMSO) was added to an aqueous liver microsome solution (1000 µL, PBS pH 7.4, 0.5 mg/mL human liver microsomes (Thermo Fisher Scientific, Cat#HMMPL), 2 mM NADPH, 2 mM MgCl2) and incubated at 37 °C for 120 min. Aliquots (50 µL) of the microsome solution were taken at various time points (0, 5, 10, 15, 30, 60, 90, 120 min) and added to a reaction quenching solution (200 µL 100% Acetonitrile) containing an internal standard. Solutions were clarified by centrifugation (16,000 x g, 5 min), and the supernatants were transferred to new tubes and lyophilized. Samples were reconstituted in 100 µL of 50/50/0.1 (Water/Acetonitrile/Formic Acid) prior to analysis via liquid chromatography-tandem mass spectrometry (LC-MS/MS). Chromatographic peak areas normalized to the internal standard were plotted at each time point and the half-life (t1/2) of compound in liver microsomes was determined by using the trendline equation to calculate the time at which compound abundance was 50% of that at time point 0 (t0).

[6] = molecular target: BRD4 (Homo sapiens, UniProt O60885); assay: BRD4 inhibition assay; type: biochemical
[7] = Brain tissue binding assay (dialysis); type: in vitro ADME; conditions: brain homogenate 20 mg/mL, 2 µM compound, dialysis 4.5 hours, 37 °C
Description: (§1) Brain tissue was homogenized in PBS (pH 7.4) (1: 3 weight(mg)/volume(µL)) and the protein concentration was determined using the Micro BCA™ Protein Assay Kit (Thermo Fisher Scientific, Cat#23235). Brain homogenate was clarified and diluted to 20 mg/mL in PBS (pH 7.4). Either brain homogenate or plasma was and added to Slide-A-Lyzer™ MINI Dialysis Devices, 10 K MWCO dialysis cups (Thermo Fisher Scientific, Cat#PI88401) in a 48-well plate containing PBS (500 µL; pH 7.4). 1 µL of 1 mM compound was added to the brain homogenate (Final Concentration: 2 µM compound, 0.5% DMSO) and incubated on a rocker for 4.5 hours at 37 °C. 50 µL of brain homogenate or plasma (within the dialysis cup) and PBS (within the 48-well plate) were transferred to new microcentrifuge tubes containing 400 µL of quenching reagent (100% Acetonitrile) containing internal standard. Solutions were clarified by centrifugation (16,000 x g, 5 min), and the supernatants were transferred to new tubes and lyophilized. Samples were reconstituted in 100 µL of 50/50/0.1 (Water/Acetonitrile/Formic Acid) prior to analysis via liquid chromatography-tandem mass spectrometry (LC-MS/MS). The % of the unbound drug (fu,bound) was calculated using the following equation:
(§2) % Bound = [1− (PBS chromatographic peak area/ brain homogenate or plasma chromatographic peak area)] x 100

[8] = Kinetic solubility; type: physicochemical; conditions: aqueous buffer, kinetic from dmso stock, PBS pH 7.4, 37 °C, 100 µM nominal
Description: Test compound (10 mM, 100% DMSO) was diluted separately into aqueous buffer (100 µM; PBS pH 7.4) and DMSO at various concentrations (1000, 100, 10, 1, 0.1 µM). The solutions were then incubated at 37 °C for 90 min and centrifuged (16000xg, 5 min). An aliquot of each supernatant was analyzed by UV/Vis (if possible) or LC-MS/MS. A standard curve was made by plotting the known amount of analyte per standard in DMSO vs. absorbance or chromatographic peak area. Kinetic solubility (mM) was calculated using the trendline equation with maximum absorbance or chromatographic peak area observed in the aqueous sample.

[9] = Plasma binding assay (dialysis); type: in vitro ADME; conditions: dialysis 4.5 hours, 37 °C
Description: as §1, §2

[10] = selective HDAC / BET inhibitors, dose response (Fig. S1), read-out: sCLU EC50
[11] = Homo sapiens, U-87 MG cells, 30 h, AlphaLISA of supernatant, read-out: EC50 for sCLU increase

Chain of BRD2 (P25440 whole entry): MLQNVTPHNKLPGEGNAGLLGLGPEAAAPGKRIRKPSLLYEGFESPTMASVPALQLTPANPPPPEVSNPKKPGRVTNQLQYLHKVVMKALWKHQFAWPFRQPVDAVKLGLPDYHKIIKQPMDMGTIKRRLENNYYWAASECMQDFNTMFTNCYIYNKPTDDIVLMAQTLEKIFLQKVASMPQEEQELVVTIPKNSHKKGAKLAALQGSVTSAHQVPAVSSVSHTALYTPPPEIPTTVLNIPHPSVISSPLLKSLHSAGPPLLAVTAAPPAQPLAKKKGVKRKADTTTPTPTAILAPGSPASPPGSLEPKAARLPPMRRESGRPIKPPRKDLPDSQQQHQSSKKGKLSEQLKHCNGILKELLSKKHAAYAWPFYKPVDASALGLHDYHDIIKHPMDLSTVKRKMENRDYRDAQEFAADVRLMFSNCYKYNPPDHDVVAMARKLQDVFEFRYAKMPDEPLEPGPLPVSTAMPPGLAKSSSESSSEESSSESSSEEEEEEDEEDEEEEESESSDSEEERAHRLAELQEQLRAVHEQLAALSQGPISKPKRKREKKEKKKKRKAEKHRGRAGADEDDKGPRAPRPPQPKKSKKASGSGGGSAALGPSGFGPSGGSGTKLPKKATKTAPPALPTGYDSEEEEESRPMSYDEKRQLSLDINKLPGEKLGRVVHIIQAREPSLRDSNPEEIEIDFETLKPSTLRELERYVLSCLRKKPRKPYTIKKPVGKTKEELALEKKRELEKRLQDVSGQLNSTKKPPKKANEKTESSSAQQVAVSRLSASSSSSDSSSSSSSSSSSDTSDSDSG

Compound | PAMPA Pm [3] | IC50 ([4]; read-out: BRD2 IC50) [nM] | half-life at 1 µM [5] [min] | EC50 [1, 11] [nM] | IC50 ([6]; read-out: BRD4 IC50) [nM] | Brain Tissue Binding [7] [% bound] | solubility kinetic at 90 min [8] [µM] | Plasma Binding [9] [% bound] | also measured
Nc1cc(F)ccc1NC(=O)/C=C/c1cnn(C/C=C/c2ccccc2)c1 [RGFP966] |  |  |  |  |  |  |  |  | EC50 ([1]; Homo sapiens, U-87 MG, selective HDAC / BET inhibitors, dose response 2-5000 nM (Fig. S1), read-out: sCLU EC50): 10100 nM
CCNC(=O)c1cc2c(-c3cc(C(C)(C)O)ccc3Oc3c(C)cc(F)cc3C)cn(C)c(=O)c2[nH]1 [ABBV-774] |  |  |  |  |  |  |  |  | potency as sCLU enhancer, comparison in words ([1]; U-87 MG cells, dose response): less potent sCLU enhancers than pan-BET inhibitors; EC50 [1, 10]: 1100 nM
CCCc1nn(C)c2c(=O)[nH]c(-c3cc(Cc4ccc(C(=O)Nc5ccccc5N)cc4)ccc3OCC)nc12 [CM-675] |  |  |  |  |  |  |  |  | EC50 [1, 10]: 6000 nM
COc1cc2c(cc1-c1c(C)noc1C)ncc1[nH]c(=O)n(C(C)c3ccccn3)c12 (stereo not drawn) [I-BET151] |  |  |  |  |  |  |  |  | EC50 ([1]; Homo sapiens, U-87 MG cells, dose response, text and figures, read-out: sCLU EC50): 617 nM; sCLU levels relative to DMSO control ([1]; U-87 MG cells): increased sCLU; also recorded: significantly increase sCLU levels; nCLU levels [2]: not affecting nCLU levels
Cc1cc(/N=N/c2ccc(S(=O)(=O)Nc3ccccn3)cc2)c(N)cc1O [MS436] |  |  |  |  |  |  |  |  | potency as sCLU enhancer, comparison in words ([1]; U-87 MG cells, dose response): less potent sCLU enhancers than pan-BET inhibitors
O=C(CCCCCCC(=O)Nc1ccccc1)NO [vorinostat] |  |  |  |  |  |  |  |  | nCLU levels [2]: not affecting nCLU levels
Cc1sc2c(c1C)C(c1ccc(Cl)cc1)=N[C@@H](CC(=O)NC1CCCC1)c1nnc(C)n1-2 [DDL-353] | 1.08 | 385 | 8 | 977 | 63 | 79 | > 100 | 93 | 
Cc1sc2c(c1C)C(c1ccc(Cl)cc1)=N[C@@H](CC(=O)N1CCCC1)c1nnc(C)n1-2 [DDL-352] | 0.98 | 644 | 62 | 1440 | 105 | 64 | > 100 | 96 | 
COc1cc(/C=C/C(=O)N2CCC=CC2=O)cc(OC)c1OC [piperlongumine] |  |  |  |  |  |  |  |  | sCLU levels relative to DMSO control ([1]; U-87 MG cells): significantly increase sCLU levels
Cc1sc2c(c1C)C(c1ccc(Cl)cc1)=N[C@@H](CC(=O)OC1CCCC1)c1nnc(C)n1-2 [DDL-351] | 1.35 |  | 3 | 117 |  | 94 | 57.5 (≈ 27 µg/mL) | 99 | IC50 [4]: 175 nM; IC50 [6]: 27 nM
O=C(NO)c1ccc(CNc2cccc3cccnc23)cc1 [MPT0G211] |  |  |  |  |  |  |  |  | EC50 [1, 10]: 10000 nM
CCCCOC(=O)C[C@@H]1N=C(c2ccc(Cl)cc2)c2c(sc(C)c2C)-n2c(C)nnc21 [DDL-358] | 1.42 |  | 14 | 446 |  | 93 | 59.3 (≈ 27.1 µg/mL) | 98 | IC50 [4]: 207 nM; IC50 [6]: 28 nM
Cc1sc2c(c1C)C(c1ccc(Cl)cc1)=N[C@@H](CC(=O)OC1CCC1)c1nnc(C)n1-2 [DDL-355] | 1.42 |  | 27 | 99 |  | 88 | 63.7 (≈ 29 µg/mL) | 86 | IC50 [4]: 163 nM; IC50 [6]: 19 nM
Cc1sc2c(c1C)C(c1ccc(Cl)cc1)=N[C@@H](CC(=O)NCC(=O)OC(C)C)c1nnc(C)n1-2 [DDL-354] | 0.76 | 382 | 12 | 676 | 48 | 67 | 91.1 (≈ 45.6 µg/mL) | 91 | 
Cc1sc2c(c1C)C(c1ccc(Cl)cc1)=NC(CC(=O)NC(C)C(=O)OC(C)C)c1nnc(C)n1-2 (stereo not drawn) [DDL-359] | 0.71 | 130 | 13 | 2340 | 353 | 44 | > 100 | 94 | 
Cc1sc2c(c1C)C(c1ccc(Cl)cc1)=N[C@@H](CC(=O)NO)c1nnc(C)n1-2 [DDL-360] | 1.09 | 395 | > 120 | 631 | 70 | 59 | > 100 | 88 | 
